Assay [1] has as its target homoserine kinase (Escherichia coli, UniProt P00547). Particulars: cited from earlier work; for % kcat: relative to L-homoserine.
The test system of assay [2] is aminotransferase from Leishmania mexicana. The following applies: activity considered 100% on tyrosine; enzyme expressed in E. coli; cited from earlier work.
Assay [3] deals with Aldehyde dehydrogenase. Put plainly: Aldehyde dehydrogenase (ALD) assay in the reductive direction, cell extracts. Particulars: extracts of MG1655 lacI^Q with pZA33.
Protocol: (§1) In Vitro Enzyme Assays. To obtain crude extracts for activity assays, cells were harvested by centrifugation at 4,500 rpm (Beckman-Coulter, Allegera X-15R) for 10 min. The pellets were resuspended in 0.3 mL BugBuster (Novagen) reagent with benzonase and lysozyme, and lysis proceeded for 15 minutes at room temperature with gentle shaking. Cell-free lysate was obtained by centrifugation at 14,000 rpm (Eppendorf centrifuge 5402) for 30 min at 4° C. Cell protein in the sample was determined using the method of Bradford et al., Anal. Biochem. 72:248-254 (1976), and specific enzyme assays conducted as described below. Activities are reported in Units/mg protein, where a unit of activity is defined as the amount of enzyme required to convert 1 mmol of substrate in 1 min. at room temperature. In general, reported values are averages of at least 3 replicate assays.
(§2) Alcohol (ADH) and aldehyde (ALD) dehydrogenase was assayed in the reductive direction using a procedure adapted from several literature sources (Durre et al., FEMS Microbiol. Rev. 17:251-262 (1995); Palosaari and Rogers, J. Bacteriol. 170:2971-2976 (1988) and Welch et al., Arch. Biochem. Biophys. 273:309-318 (1989). The oxidation of NADH is followed by reading absorbance at 340 nm every four seconds for a total of 240 seconds at room temperature. The reductive assays were performed in 100 mM MOPS (adjusted to pH 7.5 with KOH), 0.4 mM NADH, and from 1 to 50 μl of cell extract. The reaction is started by adding the following reagents: 100 μl of 100 mM acetaldehyde or butyraldehyde for ADH, or 100 μl of 1 mM acetyl-CoA or butyryl-CoA for ALD. The Spectrophotometer is quickly blanked and then the kinetic read is started. The resulting slope of the reduction in absorbance at 340 nm per minute, along with the molar extinction coefficient of NAD(P)H at 340 nM (6000) and the protein concentration of the extract, can be used to determine the specific activity.
(§3) Gene candidates for the 4-HB to BDO conversion pathway were next tested for activity when expressed in the E. coli host MG1655 lacI^Q. Recombinant strains containing each gene candidate expressed on pZA33 were grown in the presence of 0.25 mM IPTG for four hours at 37° C. to fully induce expression of the enzyme. Four hours after induction, cells were harvested and assayed for ADH and ALD activity as described above.
Assay [4] deals with Alcohol dehydrogenase. The experiment in a line: Alcohol dehydrogenase (ADH) assay in the reductive direction, cell extracts. Particulars: extracts of MG1655 lacI^Q with pZA33.
Protocol: as §1, §2, §3
For assay [5], the system named is 4-HB to BDO conversion pathway. The experiment in a line: Production of BDO from 10 mM 4-HB in recombinant E. coli strains.
Protocol: For the BDO production experiments, cat2 from Porphyromonas gingivalis W83 (gene 0034) was included on pZA33 for the conversion of 4-HB to 4-HB-CoA, while the candidate dehydrogenase genes were expressed on pZE13. The host strain was MG1655 lacI^Q. Along with the alcohol and aldehyde dehydrogenase candidates, we also tested the ability of CoA-dependent succinic semialdehyde dehydrogenases (sucD) to function in this step, due to the similarity of the substrates. Cells were grown to an OD of about 0.5 in LB medium supplemented with 10 mM 4-HB, induced with 1 mM IPTG, and culture broth samples taken after 24 hours and analyzed for BDO as described below.
Finally, the construct was tested for participation in the conversion of 4-HB to BDO. Host strains were transformed with the pZA33-0020-0021 construct described and pZE13-0002, and compared to use of cat2 in BDO production using the aerobic procedure used above in FIG. 5.

Data on 21 molecules can be found in patent US9677045B2, “Microorganisms and methods for production of 4-hydroxybutyrate, 1,4-butanediol and related compounds” (priority 2012, dated 2017).

homoserine kinase, sequence (P00547 whole entry): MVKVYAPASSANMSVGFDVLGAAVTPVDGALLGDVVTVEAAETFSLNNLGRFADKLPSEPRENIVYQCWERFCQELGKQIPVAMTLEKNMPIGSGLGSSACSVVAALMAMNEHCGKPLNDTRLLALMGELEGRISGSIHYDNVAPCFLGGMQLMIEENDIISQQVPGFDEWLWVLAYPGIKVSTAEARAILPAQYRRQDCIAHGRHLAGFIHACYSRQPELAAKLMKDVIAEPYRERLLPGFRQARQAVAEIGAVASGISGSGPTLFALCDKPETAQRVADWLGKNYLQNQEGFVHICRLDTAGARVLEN

`N[C@H](CCO)C(=O)O` [D-homoserine]: in assay [1], the kcat is 8.3 ± 1.1 and the “% kcat” value is listed as 32%.

On to `CC(C)C[C@H](N)C(=O)O` [leucine], for which the “activity relative to tyrosine” value in assay [2] was 25%.

For the molecule `CC(C)OC(=O)[C@@H](N)CCO` [L-homoserine isopropyl ester], in assay [1], the kcat was 13.6 ± 1.4 and the “% kcat” value is listed as 74%.

As for `CC(C)COC(=O)[C@@H](N)CCO` [L-homoserine isobutyl ester], in assay [1], the kcat is recorded as 16.4 ± 0.8 and the “% kcat” value is reported as 84%.

On to `N[C@@H](Cc1ccccc1)C(=O)O` [phenylalanine], for which the “activity relative to tyrosine” value in assay [2] is 90%.

Regarding `COC(=O)[C@@H](N)CCO` [L-homoserine methyl ester], in assay [1], the kcat is recorded as 14.7 ± 2.6 and the “% kcat” value was 80%.

“0011: Gene ID 0011: adhE, E. coli, Aldehyde/alcohol dehydrogenase [Sample 0011]”: the Aldehyde dehydrogenase activity in assay [3] (Substrate Acetyl-CoA) is recorded as 0.0095 μmol min^−1 mg cell protein^−1; in assay [3] (Substrate Butyryl-CoA), 0.0069 μmol min^−1 mg cell protein^−1. For the same molecule, the results for the Alcohol dehydrogenase activity in assay [4] (Substrate Acetaldehyde) and in assay [4] (Substrate Butyraldehyde) were 0.0093 μmol min^−1 mg cell protein^−1 and 0.0265 μmol min^−1 mg cell protein^−1, respectively.

Consider `CCCCOC(=O)[C@@H](N)CCO` [L-homserine n-butyl ester], for which, in assay [1], the kcat is listed as 29.1 ± 1.2 and the “% kcat” value was 160%.

Turning to `N[C@@H](Cc1c[nH]c2ccccc12)C(=O)O` [tryptophan], in assay [2], the “activity relative to tyrosine” value is on record as 85%.

Turning to `CSCC[C@H](N)C(=O)O` [methionine], the “activity relative to tyrosine” value in assay [2] was 25%.

`N[C@@H](CCO)C(=O)O` [L-homoserine]: in assay [1], the kcat is given as 18.3 ± 0.1 and the “% kcat” value was 100%.

Consider `N[C@@H](CC=O)C(=O)O` [L-aspartate β-semialdehyde], for which, in assay [1], the kcat is 2.1 ± 0.1 and the “% kcat” value is reported as 8.2%.

Turning to `N[C@@H](CCCO)C(=O)O` [L-2-amino-5-hydroxyvalerate], in assay [1], the kcat is 2.5 ± 0.4 and the “% kcat” value was 9.9%.

Take `CCOC(=O)[C@@H](N)CCO` [L-homoserine ethyl ester]: in assay [1], the kcat is 13.6 ± 0.8 and the “% kcat” value is 74%.

In the case of `N[C@@H](Cc1ccc(O)cc1)C(=O)O` [tyrosine], the “activity relative to tyrosine” value in assay [2] is given as 100%.

As for `CCCOC(=O)[C@@H](N)CCO` [L-homoserine n-propyl ester], in assay [1], the kcat is recorded as 14.0 ± 0.4 and the “% kcat” value is listed as 76%.

Take `N[C@H](CO)CCO` [L-2-amino-1,4-butanediol]: in assay [1], the kcat was 2.0 ± 0.5 and the “% kcat” value was 7.9%.

B1: 0002: Gene ID 0002: adhE, Clostridium acetobutylicum ATCC 824, Aldehyde/alcohol dehydrogenase (protein, UniProt P33744 1-862, looked up)
Aldehyde-alcohol dehydrogenase: MKVTTVKELDEKLKVIKEAQKKFSCYSQEMVDEIFRNAAMAAIDARIELAKAAVLETGMGLVEDKVIKNHFAGEYIYNKYKDEKTCGIIERNEPYGITKIAEPIGVVAAIIPVTNPTSTTIFKSLISLKTRNGIFFSPHPRAKKSTILAAKTILDAAVKSGAPENIIGWIDEPSIELTQYLMQKADITLATGGPSLVKSAYSSGKPAIGVGPGNTPVIIDESAHIKMAVSSIILSKTYDNGVICASEQSVIVLKSIYNKVKDEFQERGAYIIKKNELDKVREVIFKDGSVNPKIVGQSAYTIAAMAGIKVPKTTRILIGEVTSLGEEEPFAHEKLSPVLAMYEADNFDDALKKAVTLINLGGLGHTSGIYADEIKARDKIDRFSSAMKTVRTFVNIPTSQGASGDLYNFRIPPSFTLGCGFWGGNSVSENVGPKHLLNIKTVAERRENMLWFRVPHKVYFKFGCLQFALKDLKDLKKKRAFIVTDSDPYNLNYVDSIIKILEHLDIDFKVFNKVGREADLKTIKKATEEMSSFMPDTIIALGGTPEMSSAKLMWVLYEHPEVKFEDLAIKFMDIRKRIYTFPKLGKKAMLVAITTSAGSGSEVTPFALVTDNNTGNKYMLADYEMTPNMAIVDAELMMKMPKGLTAYSGIDALVNSIEAYTSVYASEYTNGLALEAIRLIFKYLPEAYKNGRTNEKAREKMAHASTMAGMASANAFLGLCHSMAIKLSSEHNIPSGIANALLIEEVIKFNAVDNPVKQAPCPQYKYPNTIFRYARIADYIKLGGNTDEEKVDLLINKIHELKKALNIPTSIKDAGVLEENFYSSLDRISELALDDQCTGANPRFPLTSEIKEMYINCFKKQP
Regarding B1, the BDO/OD is recorded as 15.2 in assay [5] (Aerobic), 40.5 in assay [5] (Anaerobic) and 8.73 in assay [5] (Microaerobic). In addition, the BDO worked out at 138.3 µM in assay [5] (Aerobic, 10 mM 4-HB, 24 hours, cat2 (0034) on pZA33); 54.7 µM in assay [5] (Anaerobic, 10 mM 4-HB, 24 hours, cat2 (0034) on pZA33); 48.2 µM in assay [5] (Microaerobic, 10 mM 4-HB, 24 hours, cat2 (0034) on pZA33). For the same molecule, the Aldehyde dehydrogenase activity in assay [3] (Substrate Acetyl-CoA) is 0.0046 μmol min^−1 mg cell protein^−1; in assay [3] (Substrate Butyryl-CoA), 0.0076 μmol min^−1 mg cell protein^−1. Also, the Alcohol dehydrogenase activity is 0.0247 μmol min^−1 mg cell protein^−1 in assay [4] (Substrate Acetaldehyde) and 0.0264 μmol min^−1 mg cell protein^−1 in assay [4] (Substrate Butyraldehyde).

B2: 0026: Gene ID 0026: bdhA, Clostridium acetobutylicum ATCC 824, Butanol dehydrogenase (protein, UniProt Q04944 1-389, looked up)
NADH-dependent butanol …: MLSFDYSIPTKVFFGKGKIDVIGEEIKKYGSRVLIVYGGGSIKRNGIYDRATAILKENNIAFYELSGVEPNPRITTVKKGIEICRENNVDLVLAIGGGSAIDCSKVIAAGVYYDGDTWDMVKDPSKITKVLPIASILTLSATGSEMDQIAVISNMETNEKLGVGHDDMRPKFSVLDPTYTFTVPKNQTAAGTADIMSHTFESYFSGVEGAYVQDGIAEAILRTCIKYGKIAMEKTDDYEARANLMWASSLAINGLLSLGKDRKWSCHPMEHELSAYYDITHGVGLAILTPNWMEYILNDDTLHKFVSYGINVWGIDKNKDNYEIAREAIKNTREYFNSLGIPSKLREVGIGKDKLELMAKQAVRNSGGTIGSLRPINAEDVLEIFKKSY
Turning to B2, the Aldehyde dehydrogenase activity was 0.0005 μmol min^−1 mg cell protein^−1 in assay [3] (Substrate Acetyl-CoA) and 0 μmol min^−1 mg cell protein^−1 in assay [3] (Substrate Butyryl-CoA). The Alcohol dehydrogenase activity in assay [4] (Substrate Acetaldehyde) was 0.0008 μmol min^−1 mg cell protein^−1; in assay [4] (Substrate Butyraldehyde), 0.0024 μmol min^−1 mg cell protein^−1.

B3: 0034: Gene ID 0034: cat2, Porphyromonas gingivalis W83, 4-hydroxybutyrate coenzyme A transferase (protein, listed as Porphyromonas gingivalis)
chain: MKDVLAEYASRIVSAEEAVKHIKNGERVALSHAAGVPQSCVDALVQQADLFQNVEIYHMLCLGEGKYMAPEMAPHFRHITNFVGGNSRKAVEENRADFIPVFFYEVPSMIRKDILHIDVAIVQLSMPDENGYCSFGVSCDYSKPAAESAHLVIGEINRQMPYVHGDNLIHISKLDYIVMADYPIYSLAKPKIGEVEEAIGRNCAELIEDGATLQLGIGAIPDAALLFLKDKKDLGIHTEMFSDGVVELVRSGVITGKKKTLHPGKMVATFLMGSEDVYHFIDKNPDVELYPVDYVNDPRVIAQNDNMVSINSCIEIDLMGQVVSECIGSKQFSGTGGQVDYVRGAAWSKNGKSIMAIPSTAKNGTASRIVPIIAEGAAVTTLRNEVDYVVTEYGIAQLKGKSLRQRAEALIAIAHPDFREELTKHLRKRFG
For the molecule B3, the BDO/OD in assay [5] (Host MG1655 lacI^Q) came out at 0.042; in assay [5] (Host MG1655 ΔadhE lacI^Q), 0.166. In addition, the BDO in assay [5] (Host MG1655 lacI^Q, adhE2 in pZE13, aerobic procedure) was determined as 0.827 µM; in assay [5] (Host MG1655 ΔadhE lacI^Q, adhE2 in pZE13, aerobic procedure), 2.084 µM.

B4: 0013: Gene ID 0013: bdhB, Clostridium acetobutylicum ATCC 824, Butanol dehydrogenase II (protein, UniProt Q04945 1-390, looked up)
NADH-dependent butanol …: MVDFEYSIPTRIFFGKDKINVLGRELKKYGSKVLIVYGGGSIKRNGIYDKAVSILEKNSIKFYELAGVEPNPRVTTVEKGVKICRENGVEVVLAIGGGSAIDCAKVIAAACEYDGNPWDIVLDGSKIKRVLPIASILTIAATGSEMDTWAVINNMDTNEKLIAAHPDMAPKFSILDPTYTYTVPTNQTAAGTADIMSHIFEVYFSNTKTAYLQDRMAEALLRTCIKYGGIALEKPDDYEARANLMWASSLAINGLLTYGKDTNWSVHLMEHELSAYYDITHGVGLAILTPNWMEYILNNDTVYKFVEYGVNVWGIDKEKNHYDIAHQAIQKTRDYFVNVLGLPSRLRDVGIEEEKLDIMAKESVKLTGGTIGNLRPVNASEVLQIFKKSV
As for B4, the Alcohol dehydrogenase activity in assay [4] (Substrate Acetaldehyde) was 0.0142 μmol min^−1 mg cell protein^−1; in assay [4] (Substrate Butyraldehyde) it was 0.0130 μmol min^−1 mg cell protein^−1.
